Counter-ions that a name gives are not always drawn.

The target in one experiment is T1, ERα (Homo sapiens, UniProt P03372).
T1 construct: host or cells: MCF7 cells
T1 sequence (P03372 1-595): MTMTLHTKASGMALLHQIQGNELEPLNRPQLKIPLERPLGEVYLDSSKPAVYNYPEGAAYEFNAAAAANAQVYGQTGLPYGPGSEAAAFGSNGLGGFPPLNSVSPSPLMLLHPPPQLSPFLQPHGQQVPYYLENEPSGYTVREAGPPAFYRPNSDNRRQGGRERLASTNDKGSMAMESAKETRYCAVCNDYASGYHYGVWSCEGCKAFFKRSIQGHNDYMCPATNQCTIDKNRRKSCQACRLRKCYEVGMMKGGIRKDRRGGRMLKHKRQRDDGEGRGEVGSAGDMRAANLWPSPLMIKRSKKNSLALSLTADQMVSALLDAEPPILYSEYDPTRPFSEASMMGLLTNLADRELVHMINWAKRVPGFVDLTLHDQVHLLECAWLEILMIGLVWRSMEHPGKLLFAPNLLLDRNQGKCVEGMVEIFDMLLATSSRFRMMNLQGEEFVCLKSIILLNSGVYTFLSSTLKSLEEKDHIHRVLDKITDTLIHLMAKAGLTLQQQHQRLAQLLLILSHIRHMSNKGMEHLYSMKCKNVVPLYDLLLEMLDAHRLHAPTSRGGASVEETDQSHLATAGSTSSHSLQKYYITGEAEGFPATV
The experiment in a line: Estrogen receptor degradation activity: breast cancer cell ERα in cell western assay (MCF7 cells). Type of experiment: cell-based. The following applies: 4 hours, final concentrations ranging from 0.3-0.0000018 μM, relative to fulvestrant 0.1 μM positive control. The method, then:
Test: Estrogen Receptor Degradation Activity
Said test involves measuring the in vitro degradation activity of the compounds of the invention.
The measurements of the degradation activities were made using a breast cancer cell ERα in cell western assay as described hereunder.
MCF7 cells (ATCC) were seeded in 384 wells microplate (collagen coated) at a concentration of 10000 cells/30 μL, per well in red phenol free MEM alpha medium (invitrogen) containing 5% charcoal dextran striped FBS. The following day, 9 points serial 1:5 dilution of each compound was added to the cells in 2.5 μL at final concentrations ranging either from 3-0.000018 μM (column «% Degradation at 3 μM in table 2) or from 0.3-0.0000018 μM (column «% Degradation at 0.3 μM in table 2), or 0.1 μM for fulvestrant (using as positive control). At 4 hours post compound addition the cells were fixed by adding 25 μL of formalin (final concentration 5% formalin containing 0.1% triton) for 10 minutes at room temperature and then washed twice with PBS. Then, 50 μL of LI-COR blocking buffer containing 0.1% Triton was added to plate for 30 minutes at room temperature. LI-COR blocking buffer was removed and cells were incubated overnight at cold room with 50 μL anti-ER rabbit monoclonal antibody (Thermo scientific MA1-39540) diluted at 1:1000 in LI-COR blocking buffer containing 0.1% tween-20. Wells which were treated with blocking buffer but no antibody were used as background control. Wells were washed twice with PBS (0.1% tween-20) and incubated at 37° C. for 60 minutes in LI-COR (0.1% tween-20) containing goat anti-rabbit antibody Alexa 488 (1:1000) and Syto-64 a DNA dye ([…]). Cells were then washed 3 times in PBS and scanned in ACUMEN explorer (TTP-Labtech). Integrated intensities in the green fluorescence and red fluorescence were measured to determine the levels of ERα and DNA respectively.
Regarding `O=C(O)c1ccc(-c2ccc3c(c2)CCCC(c2ccc(Cl)cc2Cl)=C3c2ccc(O[C@H]3CCN(CCCF)C3)cc2)cc1` [Example 72, (S)-4-(8-(2,4-dichlorophenyl)-9-(4-((1-(3-fluoropropyl)pyrrolidin-3-yl)oxy)phenyl)-6,7-dihydro-5H-benzo[7]annulen-3-yl)benzoic acid], the “% Degradation At 0.3 μM” value is 74%.

As for `COC(=O)c1ccccc1-c1ccc2c(c1)CCCC(c1ccc(Cl)cc1Cl)=C2c1ccc(O[C@H]2CCN(CCCF)C2)cc1` [Example 83, methyl (S)-2-(8-(2,4-dichlorophenyl)-9-(4-((1-(3-fluoropropyl)pyrrolidin-3-yl)oxy)phenyl)-6,7-dihydro-5H-benzo[7]annulen-3-yl)benzoate], the “% Degradation At 0.3 μM” value was found to be 63%. As to `C/N=c1\scc(-c2ccc3c(c2)CCCC(c2ccc(Cl)cc2Cl)=C3c2ccc(O[C@H]3CCN(CCCF)C3)cc2)n1C` [Example 69, (S,Z)-4-(8-(2,4-dichlorophenyl)-9-(4-((1-(3-fluoropropyl)pyrrolidin-3-yl)oxy)phenyl)-6,7-dihydro-5H-benzo[7]annulen-3-yl)-N,3-dimethylthiazol-2(3H)-imine hydrochloride], the “% Degradation At 0.3 μM” value was found to be 69%.

In the case of `CC1(C(=O)Nc2ccc3c(c2)CCCC(c2ccc(Cl)cc2Cl)=C3c2ccc(O[C@H]3CCN(CCCF)C3)cc2)CC1` [Example 67, (S)—N-(8-(2,4-dichlorophenyl)-9-(4-((1-(3-fluoropropyl)pyrrolidin-3-yl)oxy)phenyl)-6,7-dihydro-5H-benzo[7]annulen-3-yl)-1-methylcyclopropane-1-carboxamide], the “% Degradation At 0.3 μM” value was 79%. On the same count and under the same terms, the result for `CC(C)(C)C(=O)Nc1ccc2c(c1)CCCC(c1ccc(Cl)cc1Cl)=C2c1ccc(O[C@H]2CCN(CCCF)C2)cc1` [Example 62, (S)—N-(8-(2,4-dichlorophenyl)-9-(4-((1-(3-fluoropropyl)pyrrolidin-3-yl)oxy)phenyl)-6,7-dihydro-5H-benzo[7]annulen-3-yl)pivalamide] reads 68%. Same read-out and setting: the result for `Nc1cc(-c2ccc3c(c2)CCCC(c2ccc(Cl)cc2Cl)=C3c2ccc(O[C@H]3CCN(CCCF)C3)cc2)n[nH]1` [Example 73, (S)-3-(8-(2,4-dichlorophenyl)-9-(4-((1-(3-fluoropropyl)pyrrolidin-3-yl)oxy)phenyl)-6,7-dihydro-5H-benzo[7]annulen-3-yl)-1H-pyrazol-5-amine] reads 89%.

Staying with this experiment, now noted: 4 hours, final concentrations ranging from 3-0.000018 μM, relative to fulvestrant 0.1 μM positive control.
With `OC(c1ccc2c(c1)CCCC(c1ccc(Cl)cc1Cl)=C2c1ccc(O[C@H]2CCN(CCCF)C2)cc1)C(F)F` (stereo partly drawn) [Example 5, 1-(8-(2,4-dichlorophenyl)-9-(4-(((S)-1-(3-fluoropropyl)pyrrolidin-3-yl)oxy)phenyl)-6,7-dihydro-5H-benzo[7]annulen-3-yl)-2,2-difluoroethan-1-ol], the “% Degradation At 3 μM” value stood at 93%.

Turning to `N#Cc1ccc2c(c1)CCCC(c1ccc(Cl)cc1Cl)=C2c1ccc(O[C@H]2CCN(CCCF)C2)cc1` [Example 22, (S)-8-(2,4-dichlorophenyl)-9-(4-((1-(3-fluoropropyl)pyrrolidin-3-yl)oxy)phenyl)-6,7-dihydro-5H-benzo[7]annulene-3-carbonitrile], the “% Degradation At 3 μM” value was determined as 82%. On the same count and under the same terms, to `CS(=O)(=O)Nc1ccc2c(c1)CCCC(c1ccc(Cl)cc1Cl)=C2c1ccc(O[C@H]2CCN(CCCF)C2)cc1` [Example 30, (S)—N-(8-(2,4-dichlorophenyl)-9-(4-((1-(3-fluoropropyl)pyrrolidin-3-yl)oxy)phenyl)-6,7-dihydro-5H-benzo[7]annulen-3-yl)methane sulfonamide] belongs 70%; to `FCCCN1CC[C@H](Oc2ccc(C3=C(c4ccc(Cl)cc4Cl)CCCc4cc(-c5nn[nH]n5)ccc43)cc2)C1` [Example 16, (S)-5-(8-(2,4-dichlorophenyl)-9-(4-((1-(3-fluoropropyl)pyrrolidin-3-yl)oxy)phenyl)-6,7-dihydro-5H-benzo[7]annulen-3-yl)-2H-tetrazole], 86%; to `CONC(=O)c1ccc2c(c1)CCCC(c1ccc(Cl)cc1Cl)=C2c1ccc(O[C@H]2CCN(CCCF)C2)cc1` [Example 19, (S)-8-(2,4-dichlorophenyl)-9-(4-((1-(3-fluoropropyl)pyrrolidin-3-yl)oxy)phenyl)-N-methoxy-6,7-dihydro-5H-benzo[7]annulene-3-carboxamide], 86%. On the same count and under the same terms, the result for `O=c1c(O)c(Nc2ccc3c(c2)CCCC(c2ccc(Cl)cc2Cl)=C3c2ccc(O[C@H]3CCN(CCCF)C3)cc2)c1=O` [Example 36, (S)-3-((8-(2,4-dichlorophenyl)-9-(4-((1-(3-fluoropropyl)pyrrolidin-3-yl)oxy)phenyl)-6,7-dihydro-5H-benzo[7]annulen-3-yl)amino)-4-hydroxycyclobut-3-ene-1,2-dione] reads 93%. On to `O=c1cc(-c2ccc3c(c2)CCCC(c2ccc(Cl)cc2Cl)=C3c2ccc(O[C@H]3CCN(CCCF)C3)cc2)[nH][nH]1` [Example 12, (S)-5-(8-(2,4-dichlorophenyl)-9-(4-((1-(3-fluoropropyl)pyrrolidin-3-yl)oxy)phenyl)-6,7-dihydro-5H-benzo[7]annulen-3-yl)-1,2-dihydro-3H-pyrazol-3-one], for which the “% Degradation At 3 μM” value was 83%. On to `FCCCN1CC[C@H](Oc2ccc(C3=C(c4ccc(Cl)cc4Cl)CCCc4cc(-c5nncs5)ccc43)cc2)C1` [Example 9, (S)-2-(8-(2,4-dichlorophenyl)-9-(4-((1-(3-fluoropropyl)pyrrolidin-3-yl)oxy)phenyl)-6,7-dihydro-5H-benzo[7]annulen-3-yl)-1,3,4-thiadiazole], for which the “% Degradation At 3 μM” value is 79%. The same measure, in the same setting: the result for `FCCCN1CC[C@H](Oc2ccc(C3=C(c4ccc(OC(F)(F)F)cc4)CCCc4cc(-c5cn[nH]c5)ccc43)cc2)C1` [Example 23, (S)-4-(9-(4-((1-(3-fluoropropyl)pyrrolidin-3-yl)oxy)phenyl)-8-(4-(trifluoromethoxy)phenyl)-6,7-dihydro-5H-benzo[7]annulen-3-yl)-1H-pyrazole] reads 74%; that for `O=C1NC(=O)C(c2ccc3c(c2)CCCC(c2ccc(Cl)cc2Cl)=C3c2ccc(O[C@H]3CCN(CCCF)C3)cc2)N1` (stereo partly drawn) [Example 43, 5-(8-(2,4-dichlorophenyl)-9-(4-(((S)-1-(3-fluoropropyl)pyrrolidin-3-yl)oxy)phenyl)-6,7-dihydro-5H-benzo[7]annulen-3-yl)imidazolidine-2,4-dione], 95%.

As for `FCCCN1CC[C@H](Oc2ccc(C3=C(c4ccc(Cl)cc4Cl)CCCc4cc(-c5cn[nH]c5)ccc43)cc2)C1` [Example 21, (S)-4-(8-(2,4-dichlorophenyl)-9-(4-((1-(3-fluoropropyl)pyrrolidin-3-yl)oxy)phenyl)-6,7-dihydro-5H-benzo[7]annulen-3-yl)-1H-pyrazole], the “% Degradation At 3 μM” value is 78%. For `CC(C)(C)OC(=O)Nc1ccc2c(c1)CCCC(c1ccc(Cl)cc1Cl)=C2c1ccc(O[C@H]2CCN(CCCF)C2)cc1` [Example 32, Tert-butyl (S)-(8-(2,4-dichlorophenyl)-9-(4-((1-(3-fluoropropyl)pyrrolidin-3-yl)oxy)phenyl)-6,7-dihydro-5H-benzo[7]annulen-3-yl)carbamate], the “% Degradation At 3 μM” value turned out to be 73%. Same read-out and setting: the result for `OC(c1ccc2c(c1)CCCC(c1ccc(Cl)cc1Cl)=C2c1ccc(O[C@H]2CCN(CCCF)C2)cc1)C(F)(F)F` (stereo partly drawn) [Example 10, 1-(8-(2,4-dichlorophenyl)-9-(4-(((S)-1-(3-fluoropropyl)pyrrolidin-3-yl)oxy)phenyl)-6,7-dihydro-5H-benzo[7]annulen-3-yl)-2,2,2-trifluoroethan-1-ol] reads 92%. Same read-out and setting: to `O=C1OCCN1c1ccc2c(c1)CCCC(c1ccc(Cl)cc1Cl)=C2c1ccc(O[C@H]2CCN(CCCF)C2)cc1` [Example 40, (S)-3-(8-(2,4-dichlorophenyl)-9-(4-((1-(3-fluoropropyl)pyrrolidin-3-yl)oxy)phenyl)-6,7-dihydro-5H-benzo[7]annulen-3-yl)oxazolidin-2-one] belongs 66%.
